Legend:
Assay type in all cases: in vivo, Male Wistar strain rats
[1] = tested on: hypoxemia model animals (acetic acid); test: Effect on partial pressure of gases in arterial blood, intravenous, Method B (acetic acid induced hypoxemia); settings: 2.0% acetic acid, intravenous 0.1 mg/kg/min, 10 min, after minus before administration
Description: (§1) Example 75: Effect on Partial Pressure Value of Gases in Arterial Blood (Intravenous Injection System)
Male Wistar strain rats (body weight about 300 g) were anesthetized with halothane inhalant, and then 2.0% acetic acid was intratrachealy injected at 0.6 ml/kg to induce a respiratory insufficiency. The animals were intraperitonealy anesthetized with urethane-α-chloralose, and a cannula was inserted into the femoral artery. After the hypoxemic state (PaO2 : 60-70 mmHg) was observed a compound in accordance with the present invention (test substance) was continuously injected into these hypoxemia model animals intravenously (0.1 mg/kg/min, 10 min), and then a partial pressure value of gases (PaO2, PaCO2) in arterial blood was immediately determined.

[2] = tested on: hypoxemia state (acetic acid); test: Effect on partial pressure of gases in arterial blood, oral administration (acetic acid induced hypoxemia); settings: 2.0% acetic acid, 60 min after administration
Description: Example 76: Effect on Partial Pressure Value of Gases in Arterial Blood (Oral Administration System)
Male Wistar strain rats (body weight about 250 g) fasted overnight were anesthetized with halothane inhalant, and then a cannula was inserted into the femoral artery. After the animals recovered from the anesthesia, they were again anesthetized with halothane inhalant, and then 2.0% acetic acid was intratrachealy injected at 0.8 ml/kg to induce a hypoxemia state. After the hypoxemic state was observed over about 60 min., a compound in accordance with the present invention (test substance) was orally administered to the animals. On 60 min. after the administration, the partial pressure value of gases (PaO2, PaCO2) in arterial blood was determined.

[3] = tested on: hypoxemia model animals (carbon powder); test: Effect on partial pressure of gases in arterial blood, intravenous, Method A (carbon powder induced hypoxemia); settings: intravenous 0.1 mg/kg/min, 10 min, after minus before administration
Description: as §1
Male Wistar strain rats (body weight about 300 g) were anesthetized intra-peritonealy with urethane, and a cannula was inserted into the respiratory tract and the femoral artery, respectively. A suspension (30-100 μm, 10 mg/ml) of carbon powder in a corn oil was intratrachealy injected to induce a hypoxemia state (PaO2 : 50-60 mmHg). A compound in the present invention was continuously injected into these hypoxemia model animals intravenously (0.1 mg/kg/min, 10 min), and then a partial pressure value of gases (PaO2, PaCO2) in arterial blood was immediately determined.

## C=CCNc1nc2c(c(N3CCN(C)CC3)n1)CCCN2CC=C [Compound 155]
[1]
  PaCO2 Decreasing Activity ΔPaCO2: +2.6 mmHg
  PaO2 Increasing Activity ΔPaO2: +6.6 mmHg
[2]
  PaCO2 Decreasing Activity ΔPaCO2: + (-3--6 mmHg)
  PaO2 Increasing Activity ΔPaO2: ++ (+6-+9 mmHg)

## C=CCNc1nc2c(c(N3CCN(C(c4ccc(F)cc4)c4ccc(F)cc4)CC3)n1)CCCN2CC=C [Compound 159]
[3]
  PaCO2 Decreasing Activity ΔPaCO2: +0.4 mmHg
  PaO2 Increasing Activity ΔPaO2: +4.8 mmHg

## C=CCNc1nc2c(c(N3CCC(c4ccccc4)CC3)n1)CCCN2CC=C [Compound 146]
[1]
  PaCO2 Decreasing Activity ΔPaCO2: +2.5 mmHg
  PaO2 Increasing Activity ΔPaO2: +6.6 mmHg

## C=CCNc1nc2c(c(N3CCCCC3)n1)CCCN2CC=C [Compound 145]
[1]
  PaCO2 Decreasing Activity ΔPaCO2: -0.8 mmHg
  PaO2 Increasing Activity ΔPaO2: +11.2 mmHg
[2]
  PaCO2 Decreasing Activity ΔPaCO2: ± (0--3 mmHg)
  PaO2 Increasing Activity ΔPaO2: + (+3-+6 mmHg)

## C=CCNc1nc2c(c(N3CCOCC3)n1)CCCN2CC=C [Compound 209]
[1]
  PaCO2 Decreasing Activity ΔPaCO2: -2.4 mmHg
  PaO2 Increasing Activity ΔPaO2: +7.6 mmHg
[2]
  PaCO2 Decreasing Activity ΔPaCO2: + (-3--6 mmHg)
  PaO2 Increasing Activity ΔPaO2: + (+3-+6 mmHg)

## C=CCNc1nc(SC(C)c2ccccc2)c2c(n1)N(CC=C)CCC2 (stereo not drawn) [Compound 203]
[1]
  PaCO2 Decreasing Activity ΔPaCO2: -2.1 mmHg
  PaO2 Increasing Activity ΔPaO2: +9.5 mmHg

## C=CCNc1nc(N2CC=CCC2)c2c(n1)N(CC=C)CCC2 [Compound 213]
[1]
  PaCO2 Decreasing Activity ΔPaCO2: -2.9 mmHg
  PaO2 Increasing Activity ΔPaO2: +10.3 mmHg

## C=CCNc1nc2c(c(N3CCCC3)n1)CCCN2CC=C [Compound 143]
[1]
  PaCO2 Decreasing Activity ΔPaCO2: -0.7 mmHg
  PaO2 Increasing Activity ΔPaO2: +8.1 mmHg
[2]
  PaCO2 Decreasing Activity ΔPaCO2: ± (0--3 mmHg)
  PaO2 Increasing Activity ΔPaO2: + (+3-+6 mmHg)

## C=CCNc1nc(SCCc2ccccc2)c2c(n1)N(CC=C)CCC2 [Compound 204]
[1]
  PaCO2 Decreasing Activity ΔPaCO2: +2.2 mmHg
  PaO2 Increasing Activity ΔPaO2: +15.0 mmHg

## C=CCNc1nc(NCC=C)c2c(n1)N(Cc1ccccc1)CCC2 [Compound 233]
[1]
  PaCO2 Decreasing Activity ΔPaCO2: -4.0 mmHg
  PaO2 Increasing Activity ΔPaO2: +8.6 mmHg

## C=C(C)CNc1nc2c(c(N3CCN(C(c4ccc(F)cc4)c4ccc(F)cc4)CC3)n1)CCCN2 [Compound 112]
[3]
  PaCO2 Decreasing Activity ΔPaCO2: -2.0 mmHg
  PaO2 Increasing Activity ΔPaO2: +4.6 mmHg

## C=CCNc1nc(NCC=C)c2c(n1)N(C)CCC2 [Compound 121]
[1]
  PaCO2 Decreasing Activity ΔPaCO2: -1.2 mmHg
  PaO2 Increasing Activity ΔPaO2: +15.9 mmHg
[2]
  PaCO2 Decreasing Activity ΔPaCO2: + (-3--6 mmHg)
  PaO2 Increasing Activity ΔPaO2: ++ (+6-+9 mmHg)

## C=CCNc1nc2c(c(N3CCCCCC3)n1)CCCN2CC=C [Compound 153]
[1]
  PaCO2 Decreasing Activity ΔPaCO2: -0.9 mmHg
  PaO2 Increasing Activity ΔPaO2: +10.0 mmHg

## C=CCNc1nc(NCCc2ccccc2)c2c(n1)N(CC=C)CCC2 [Compound 171]
[1]
  PaCO2 Decreasing Activity ΔPaCO2: -13.4 mmHg
  PaO2 Increasing Activity ΔPaO2: +17.4 mmHg
[2]
  PaCO2 Decreasing Activity ΔPaCO2: ± (0--3 mmHg)
  PaO2 Increasing Activity ΔPaO2: + (+3-+6 mmHg)

## C=CCNc1nc(NCC=C)c2c(n1)N(CC=C)CCC2 [Compound 168]
[1]
  PaCO2 Decreasing Activity ΔPaCO2: -12.2 mmHg
  PaO2 Increasing Activity ΔPaO2: +14.4 mmHg

## C=CCNc1nc(N(C)Cc2ccccc2)c2c(n1)N(CC=C)CCC2 [Compound 189]
[1]
  PaCO2 Decreasing Activity ΔPaCO2: -7.6 mmHg
  PaO2 Increasing Activity ΔPaO2: +16.0 mmHg

## C=CCNc1nc(N(C)C)c2c(n1)N(CC=C)CCC2 [Compound 184]
[1]
  PaCO2 Decreasing Activity ΔPaCO2: -3.2 mmHg
  PaO2 Increasing Activity ΔPaO2: +10.4 mmHg

## C=CCNc1nc2c(c(N3CCc4ccccc4C3)n1)CCCN2CC=C [Compound 214]
[1]
  PaCO2 Decreasing Activity ΔPaCO2: +2.2 mmHg
  PaO2 Increasing Activity ΔPaO2: +9.8 mmHg

From patent publication US5378700A, “Fused pyrimidine derivative, process for preparation of same and pharmaceutical preparation comprising same as active ingredient” (Teijin Limited, priority 1989, dated 1995)
